Data: the supplement of paper PMC10307832

Key:
Assay in all cases: relative viability (nuclei count vs DMSO), 5 days (fraction); higher = more cells survive
NCI-H1755 = test system: NCI-H1755
How it was run: (§1)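 Values are medians from duplicate plates. Each reflects relative viability, defined as the nuclei count of treated wells over that of vehicle wells. Lung cancer cell lines in 1536-well plates were pin-tool dosed one day after seeding with one drug alone or with a fixed anchor-drug dose plus five library-drug doses (not always all listed) in √10 steps, then fixed, stained and imaged at 4× after 5 days.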

NCI-H2170 = test system: NCI-H2170
How it was run: as §1

NCI-H1651 = test system: NCI-H1651
How it was run: as §1

SK-MES-1 = test system: SK-MES-1
How it was run: as §1

NCI-H1650 = test system: NCI-H1650
How it was run: as §1

NCI-H1437 = test system: NCI-H1437
How it was run: as §1

BEN = test system: BEN
How it was run: as §1

NCI-H1666 = test system: NCI-H1666
How it was run: as §1

NCI-H520 = test system: NCI-H520
How it was run: as §1

CAL-12T = test system: CAL-12T
How it was run: as §1

NCI-H2085 = conditions: first compound 0.001 µM
How it was run: as §1

In the case of Cc1cn(-c2cc(NC(=O)c3ccc(C)c(Nc4nccc(-c5cccnc5)n4)c3)cc(C(F)(F)F)c2)cn1 [Nilotinib] + O=C(c1cc(Cc2n[nH]c(=O)c3ccccc23)ccc1F)N1CCN(C(=O)C2CC2)CC1 [Olaparib] (partner 8 µM), the relative viability (NCI-H1755; first compound 0.001 µM) is reported as 0.839, the relative viability (NCI-H1755; first compound 0.003162 µM) is reported as 1.02 and the relative viability (NCI-H1755; first compound 0.01 µM) is reported as 0.953. For the same compound, the relative viability (NCI-H1755; first compound 0.03162 µM) was 0.901, the relative viability (NCI-H1755; first compound 0.1 µM) was 0.784 and the relative viability (NCI-H2170; first compound 0.001 µM) was 0.597. It also gave a relative viability (NCI-H2170; first compound 0.003162 µM) of 0.662, a relative viability (NCI-H2170; first compound 0.01 µM) of 0.647 and a relative viability (NCI-H2170; first compound 0.03162 µM) of 0.574. It also gave a relative viability (NCI-H2170; first compound 0.1 µM) of 0.614, a relative viability (NCI-H1651; first compound 0.001 µM) of 0.173 and a relative viability (NCI-H1651; first compound 0.003162 µM) of 0.187. The relative viability (NCI-H1651; first compound 0.01 µM) was 0.168, the relative viability (NCI-H1651; first compound 0.03162 µM) was 0.156 and the relative viability (NCI-H1651; first compound 0.1 µM) was 0.181. It also gave a relative viability (SK-MES-1; first compound 0.001 µM) of 0.611, a relative viability (SK-MES-1; first compound 0.003162 µM) of 0.696 and a relative viability (SK-MES-1; first compound 0.01 µM) of 0.778. It also gave a relative viability (SK-MES-1; first compound 0.03162 µM) of 0.573, a relative viability (SK-MES-1; first compound 0.1 µM) of 0.432 and a relative viability (NCI-H1650; first compound 0.001 µM) of 0.776. It also gave a relative viability (NCI-H1650; first compound 0.003162 µM) of 0.948, a relative viability (NCI-H1650; first compound 0.01 µM) of 0.777 and a relative viability (NCI-H1650; first compound 0.03162 µM) of 0.756. For the same compound, the relative viability (NCI-H1650; first compound 0.1 µM) was 1.08, the relative viability (NCI-H1437; first compound 0.001 µM) was 0.603 and the relative viability (NCI-H1437; first compound 0.003162 µM) was 0.687. It also gave a relative viability (NCI-H1437; first compound 0.01 µM) of 0.654, a relative viability (NCI-H1437; first compound 0.03162 µM) of 0.548 and a relative viability (NCI-H1437; first compound 0.1 µM) of 0.559. It also gave a relative viability (BEN; first compound 0.001 µM) of 1.11, a relative viability (BEN; first compound 0.003162 µM) of 1.1 and a relative viability (BEN; first compound 0.01 µM) of 1.25. It also gave a relative viability (BEN; first compound 0.03162 µM) of 0.996, a relative viability (BEN; first compound 0.1 µM) of 1 and a relative viability (NCI-H1666; first compound 0.001 µM) of 0.71. The relative viability (NCI-H1666; first compound 0.003162 µM) was 0.805, the relative viability (NCI-H1666; first compound 0.01 µM) was 0.803 and the relative viability (NCI-H1666; first compound 0.03162 µM) was 0.778. It also gave a relative viability (NCI-H1666; first compound 0.1 µM) of 0.754, a relative viability (NCI-H520; first compound 0.001 µM) of 0.321 and a relative viability (NCI-H520; first compound 0.003162 µM) of 0.293. For the same compound, the relative viability (NCI-H520; first compound 0.01 µM) was 0.305, the relative viability (NCI-H520; first compound 0.03162 µM) was 0.316 and the relative viability (NCI-H520; first compound 0.1 µM) was 0.294. The relative viability (CAL-12T; first compound 0.001 µM) was 0.648, the relative viability (CAL-12T; first compound 0.003162 µM) was 0.677 and the relative viability (CAL-12T; first compound 0.01 µM) was 0.738. For the same compound, the relative viability (CAL-12T; first compound 0.03162 µM) was 0.67, the relative viability (CAL-12T; first compound 0.1 µM) was 0.793 and the relative viability (NCI-H2085) was 0.747.
